Experimental data published in the supplement of paper PMC10331698.
± gives the standard deviation of the averaged measurements.

Columns and labels:
Assay in all cases: level (log10 ratio to DMSO vehicle control); higher = higher biomarker level / cell amount than vehicle control
Details in all cases: in DMSO
[1] = compound: O=C(O)C(F)(F)OC(F)(F)C(F)(F)OC(F)(F)C(F)(F)C(F)(F)C(F)(F)F [Perfluoro-3,6-dioxadecanoic acid]
Procedure: (§1)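 BioMAP Diversity Plus panel of 12 human primary cell co-culture systems (3C, 4H, LPS, SAg, BT, BF4T, BE3C, CASM3C, HDF3CGF, KF3CT, MyoF, Mphg). Compounds were added 1 h before stimulation and left for 24 h (MyoF 48 h; BT 72 h for soluble read-outs or 6 d for IgG). Biomarkers were read by ELISA, cytotoxicity by SRB, PBMC viability and proliferation by Alamar Blue. Each well value was divided by the mean of 8 DMSO control wells on the same plate and log10 transformed; duplicate blinded samples were tested at 4 concentrations.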

[2] = compound: OCC(F)(F)C(F)(F)C(F)(F)C(F)(F)C(F)(F)C(F)F [1H,1H,7H-Dodecafluoro-1-heptanol]
Procedure: as §1

[3] = compound: FC(F)(F)C(F)(F)C(F)(F)C(F)(F)C(F)(F)C(F)(F)C(F)(F)CCI [1-Iodo-1H,1H,2H,2H-perfluorononane]
Procedure: as §1

[4] = compound: CNS(=O)(=O)C(F)(F)C(F)(F)C(F)(F)C(F)(F)C(F)(F)C(F)(F)C(F)(F)C(F)(F)F [N-Methylperfluorooctanesulfonamide]
Procedure: as §1

[5] = compound: O=C(O)C(F)(F)C(F)(F)C(F)(F)C(F)(F)C(F)(F)C(F)(F)C(F)(F)C(F)(F)C(F)(F)C(F)(F)C(F)(F)C(F)(F)C(F)(F)F [Perfluorotetradecanoic acid]
Procedure: as §1

[6] = compound: O=C(O)CCC(F)(F)C(F)(F)C(F)(F)C(F)(F)C(F)(F)F [2H,2H,3H,3H-Perfluorooctanoic acid]
Procedure: as §1

[7] = compound: C=C(C)C(=O)OCC(F)(F)C(F)(F)C(F)(F)C(F)(F)C(F)(F)C(F)(F)C(F)(F)F
Procedure: as §1

| Test System | level (log10) ([1]; 6700 nM) | level (log10) ([1]; 20000 nM) | level (log10) ([1]; 60000 nM) | level (log10) ([2]; 6700 nM) | level (log10) ([2]; 20000 nM) | level (log10) ([2]; 60000 nM) | level (log10) ([3]; 6700 nM) | level (log10) ([3]; 20000 nM) | level (log10) ([4]; 6700 nM) | level (log10) ([4]; 20000 nM) | level (log10) ([4]; 60000 nM) | level (log10) ([5]; 6700 nM) | level (log10) ([5]; 20000 nM) | level (log10) ([6]; 6700 nM) | level (log10) ([6]; 20000 nM) | level (log10) ([6]; 60000 nM) | level (log10) ([7]; 6700 nM) | level (log10) ([7]; 20000 nM) |
| --- | --- | --- | --- | --- | --- | --- | --- | --- | --- | --- | --- | --- | --- | --- | --- | --- | --- | --- |
| BT:sTNF-alpha | 0.0675 ± 0.086 | 0.0875 ± 0.08 | -0.046 ± 0.051 | -0.01 ± 0.31 | 0.0815 ± 0.039 | -0.0155 ± 0.15 | 0.018 ± 0.054 | 0.063 ± 0.12 | -0.017 ± 0.055 | 0.0015 ± 0.022 | -0.0905 ± 0.29 | 0.014 ± 0.11 | -0.082 ± 0.092 | -0.0085 ± 0.0035 | -0.0055 ± 0.074 | 0.005 ± 0.037 | -0.042 ± 0.0099 | -0.0145 ± 0.013 |
| LPS:CCL2/MCP-1 | 0.008 ± 0.0085 | 0.0005 ± 0.0078 | -0.042 ± 0.05 | 0.002 ± 0.0014 | -0.0125 ± 0.0078 | -0.0005 ± 0.018 | -0.008 ± 0.016 | 0.0145 ± 0.04 | -0.0135 ± 0.0035 | 0.0125 ± 0.0021 | 0.006 ± 0.021 | 0.013 ± 0.055 | 0.0055 ± 0.077 | 0.017 ± 0.011 | 0.018 ± 0.044 | 0.0255 ± 0.043 | 0.007 ± 0.0071 | 0.017 ± 0.0085 |
| LPS:CD40 | -0.0125 ± 0.0078 | -0.0265 ± 0.023 | -0.14 ± 0.055 | -0.0085 ± 0.03 | 0.026 ± 0.023 | -0.013 ± 0.038 | -0.0105 ± 0.019 | 0.034 ± 0.025 | -0.0545 ± 0.083 | -0.0265 ± 0.023 | -0.0375 ± 0.0078 | 0.0005 ± 0.12 | 0 ± 0.11 | -0.005 ± 0.047 | -0.014 ± 0.02 | -0.0635 ± 0.026 | -0.03 ± 0.024 | -0.0145 ± 0.021 |
| LPS:CD62E/E-Selectin | 0.008 ± 0.034 | 0.006 ± 0.04 | 0.024 ± 0.04 | 0.0045 ± 0.0064 | -0.005 ± 0.013 | -0.009 ± 0.014 | -0.003 ± 0.027 | -0.0175 ± 0.057 | -0.024 ± 0.011 | 0.01 ± 0.02 | 0.03 ± 0.018 | -0.0035 ± 0.011 | 0.01 ± 0.04 | 0.0405 ± 0.029 | 0.022 ± 0.028 | 0.027 ± 0.021 | -0.021 ± 0.018 | 0.0025 ± 0.0035 |
| LPS:CD69 | -0.009 ± 0.0099 | -0.0425 ± 0.026 | -0.191 ± 0.088 | -0.002 ± 0.096 | -0.0005 ± 0.076 | 0.0005 ± 0.079 | -0.0145 ± 0.026 | -0.0065 ± 0.063 | -0.068 ± 0.016 | -0.0725 ± 0.0092 | -0.0725 ± 0.0035 | -0.012 ± 0.025 | -0.027 ± 0.068 | -0.0475 ± 0.084 | -0.076 ± 0.052 | -0.135 ± 0.051 | -0.0065 ± 0.069 | 0.0095 ± 0.067 |
| LPS:CD106/VCAM-1 | 0.002 ± 0.037 | -0.0175 ± 0.035 | -0.092 ± 0.014 | 0 ± 0.0042 | -0.0075 ± 0.00071 | -0.0065 ± 0.019 | 0.002 ± 0.011 | -0.0155 ± 0.039 | -0.013 ± 0.038 | 0.0295 ± 0.018 | 0.03 ± 0.027 | -0.036 ± 0.033 | -0.0565 ± 0.039 | 0.006 ± 0.023 | 0.018 ± 0.033 | -0.016 ± 0.082 | -0.021 ± 0.05 | -0.0085 ± 0.046 |
| LPS:CD141/Thrombomodulin | 0.0245 ± 0.025 | 0.001 ± 0.04 | -0.0235 ± 0.0078 | 0.001 ± 0.028 | 0.0005 ± 0.037 | 0.0005 ± 0.042 | -0.0265 ± 0.0021 | -0.024 ± 0.0057 | 0.005 ± 0.0028 | 0.0475 ± 0.0092 | 0.056 ± 0.0014 | 0.009 ± 0.1 | -0.002 ± 0.072 | 0.0745 ± 0.043 | 0.048 ± 0.089 | 0.009 ± 0.088 | 0.0115 ± 0.019 | -0.015 ± 0.025 |
| LPS:CD142/Tissue Factor | 0.031 ± 0.054 | -0.029 ± 0.03 | -0.0375 ± 0.083 | -0.008 ± 0.0014 | -0.0175 ± 0.015 | 0.0065 ± 0.025 | 0.046 ± 0.073 | -0.0215 ± 0.09 | -0.0275 ± 0.016 | -0.0395 ± 0.016 | -0.074 ± 0.018 | 0.0225 ± 0.04 | 0.0025 ± 0.098 | 0.0725 ± 0.018 | 0.063 ± 0.0028 | 0.0265 ± 0.037 | -0.0155 ± 0.032 | -0.0245 ± 0.087 |
| LPS:CXCL8/IL-8 | -0.0175 ± 0.0092 | -0.0145 ± 0.013 | 0.018 ± 0.02 | 0.0055 ± 0.029 | 0.0005 ± 0.022 | 0.0025 ± 0.011 | 0.005 ± 0.072 | -0.001 ± 0.082 | -0.007 ± 0.0085 | -0.003 ± 0.016 | -0.0025 ± 0.019 | 0.0125 ± 0.077 | 0.0255 ± 0.16 | 0.054 ± 0.034 | 0.0715 ± 0.09 | 0.121 ± 0.11 | -0.0045 ± 0.0092 | 0.033 ± 0.011 |
| LPS:IL-1alpha | -0.008 ± 0.0085 | -0.0225 ± 0.03 | -0.04 ± 0.013 | -0.006 ± 0.0042 | -0.031 ± 0.02 | 0.0025 ± 0.046 | -0.008 ± 0.041 | 0.031 ± 0.016 | 0.0405 ± 0.071 | 0.107 ± 0.067 | 0.124 ± 0.078 | -0.031 ± 0.071 | -0.045 ± 0.09 | 0.0025 ± 0.00071 | 0.029 ± 0.035 | 0.0415 ± 0.00071 | 0.016 ± 0.048 | 0.044 ± 0.016 |
| LPS:M-CSF | 0.006 ± 0.018 | -0.0115 ± 0.03 | -0.013 ± 0.0057 | 0.0025 ± 0.00071 | 0.0075 ± 0.0035 | 0.01 ± 0.038 | -0.003 ± 0.028 | -0.0015 ± 0.093 | -0.038 ± 0.018 | -0.0125 ± 0.011 | -0.017 ± 0.013 | -0.0435 ± 0.0021 | -0.0695 ± 0.037 | -0.0035 ± 0.0035 | 0.008 ± 0.014 | 0.0035 ± 0.03 | 0.005 ± 0.017 | 0.03 ± 0.017 |
| LPS:SRB | -0.01 ± 0.014 | -0.0025 ± 0.005 | -0.105 ± 0.069 | -0.008 ± 0.0014 | -0.006 ± 0.0042 | -0.0015 ± 0.015 | 0.0125 ± 0.0064 | 0.019 ± 0.017 | -0.0005 ± 0.00071 | -0.03 ± 0.0042 | -0.0625 ± 0.039 | -0.011 ± 0.0042 | -0.0055 ± 0.018 | -0.01 ± 0.0014 | -0.0115 ± 0.0035 | -0.0035 ± 0.0064 | -0.0025 ± 0.0078 | -0.0045 ± 0.005 |
| LPS:sPGE2 | -0.105 ± 0.011 | -0.161 ± 0.0078 | -0.248 ± 0.03 | -0.0455 ± 0.066 | -0.0115 ± 0.016 | -0.011 ± 0.0057 | -0.0095 ± 0.0021 | -0.03 ± 0.017 | -0.011 ± 0.0028 | 0.038 ± 0.0028 | 0.0305 ± 0.032 | 0.0005 ± 0.011 | 0.0255 ± 0.019 | -0.0095 ± 0.033 | -0.08 ± 0.0014 | -0.111 ± 0.049 | -0.0035 ± 0.05 | -0.031 ± 0.034 |
| LPS:sTNF-alpha | 0.012 ± 0.011 | 0.0155 ± 0.018 | 0.0135 ± 0.015 | -0.06 ± 0.028 | -0.04 ± 0.042 | -0.023 ± 0.073 | 0.0075 ± 0.0035 | 0.0035 ± 0.0021 | 0.0045 ± 0.073 | -0.012 ± 0.1 | 0.0085 ± 0.13 | -0.009 ± 0.037 | 0.003 ± 0.018 | -0.017 ± 0.0014 | -0.0165 ± 0.005 | -0.014 ± 0.0085 | 0.0045 ± 0.088 | 0.0175 ± 0.011 |
| SAg:CCL2/MCP-1 | 0.017 ± 0.088 | -0.0255 ± 0.00071 | -0.0895 ± 0.026 | 0.0005 ± 0.005 | -0.0035 ± 0.00071 | 0.0225 ± 0.029 | -0.0145 ± 0.0078 | -0.0025 ± 0.049 | -0.0205 ± 0.0035 | -0.003 ± 0.011 | -0.004 ± 0.0085 | -0.021 ± 0.0057 | -0.0185 ± 0.0064 | -0.005 ± 0.0085 | -0.007 ± 0.02 | -0.019 ± 0.025 | -0.0015 ± 0.0035 | 0.0175 ± 0.0092 |
| SAg:CD38 | -0.0115 ± 0.0021 | -0.021 ± 0.0057 | -0.061 ± 0.069 | 0.0005 ± 0.013 | 0.0105 ± 0.019 | 0.0075 ± 0.022 | 0.007 ± 0.03 | -0.007 ± 0.042 | -0.012 ± 0.0085 | -0.0255 ± 0.012 | -0.0515 ± 0.0064 | -0.0205 ± 0.03 | -0.018 ± 0.016 | -0.0215 ± 0.037 | -0.024 ± 0.041 | -0.0595 ± 0.03 | -0.0195 ± 0.00071 | 0.011 ± 0.0071 |
